Measurements as given in PubChem BioAssay AID588426 (Johns Hopkins Ion Channel Center, 2011).
Calls of active or inactive are those of the source.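 How the source made its calls: active means blocks KCNQ2 potassium channel current at some tested dose, with a fitted dose response curve; inactive means the rest.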

target: Potassium voltage-gated channel subfamily KQT member 2 (Rattus norvegicus) (UniProt O88943); experiment: blockers of rat KCNQ2 potassium current – automated electrophysiology, CHO cells, CRC2, orthogonal assay for KCNQ2 inhibitor project, SAR follow-up (AID 588426); conditions: KCNQ2-CHO automated patch clamp current
Sequence (O88943 whole entry, looked up): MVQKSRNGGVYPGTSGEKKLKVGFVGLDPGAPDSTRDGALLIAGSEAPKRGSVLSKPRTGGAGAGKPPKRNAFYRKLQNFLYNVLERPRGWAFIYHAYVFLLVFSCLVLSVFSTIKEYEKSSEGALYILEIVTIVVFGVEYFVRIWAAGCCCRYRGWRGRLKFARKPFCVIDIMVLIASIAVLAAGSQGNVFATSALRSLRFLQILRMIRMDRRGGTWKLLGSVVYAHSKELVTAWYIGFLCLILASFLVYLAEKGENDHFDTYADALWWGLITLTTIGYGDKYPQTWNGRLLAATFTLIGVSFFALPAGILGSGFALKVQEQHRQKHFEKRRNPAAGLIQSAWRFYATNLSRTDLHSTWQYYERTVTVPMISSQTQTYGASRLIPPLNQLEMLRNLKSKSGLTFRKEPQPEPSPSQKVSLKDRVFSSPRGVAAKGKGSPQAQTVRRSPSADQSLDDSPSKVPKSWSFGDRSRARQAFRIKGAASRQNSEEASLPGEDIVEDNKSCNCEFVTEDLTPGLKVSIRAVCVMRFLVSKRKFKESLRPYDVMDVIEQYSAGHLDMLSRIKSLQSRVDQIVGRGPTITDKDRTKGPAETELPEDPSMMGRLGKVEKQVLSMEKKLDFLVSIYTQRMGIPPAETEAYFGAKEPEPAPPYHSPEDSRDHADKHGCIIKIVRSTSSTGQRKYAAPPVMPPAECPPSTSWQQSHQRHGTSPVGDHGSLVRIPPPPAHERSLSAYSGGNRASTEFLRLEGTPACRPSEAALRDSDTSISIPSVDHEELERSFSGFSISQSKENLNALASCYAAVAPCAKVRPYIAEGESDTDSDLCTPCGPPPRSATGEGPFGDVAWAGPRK

Structure (SMILES) | IC50 [nM]
C[C@@H](C(=O)Nc1ccccc1N1CCCC1)c1ccccc1 | 5130
Cc1cccc(CC(=O)Nc2ccccc2N2CCCC2)c1 | 1320
O=C(Nc1ccccc1N1CCCC1)[C@@H]1CCc2ccccc21 | 2290
CC[C@@H](C(=O)Nc1ccccc1N1CCCC1)c1ccccc1 | 940
CCC(C(=O)Nc1ccccc1N1CCCC1)c1cccc(OC)c1 (configuration not stated) | 120
CCC(C(=O)Nc1ccccc1N1CCCC1)c1ccc(F)c(F)c1 (configuration not stated) | 170
CCCC(C(=O)Nc1ccccc1N1CCCC1)c1ccccc1 (configuration not stated) | 320
O=C(Cc1ccc(Cl)cc1)Nc1ccccc1N1CCCC1 | 800
CC[C@H](C(=O)Nc1ccc(N2CCCC2)cc1)c1ccccc1 | 110
CCC(C(=O)Nc1ccccc1N1CCCC1)c1ccccc1 (configuration not stated) | 160
O=C(Cc1cccc(C(F)(F)F)c1)Nc1ccccc1N1CCCC1 | 350
O=C(Cc1ccc(Cl)c(Cl)c1)Nc1ccccc1N1CCCC1 | 1070
CCC(C(=O)Nc1ccc(N2CCCC2)cc1)c1ccccc1 (configuration not stated) | 210
O=C(Cc1cccc(Cl)c1)Nc1ccccc1N1CCCC1 | 170
C[C@H](C(=O)Nc1ccccc1N1CCCC1)c1ccccc1 | 590
O=C(Cc1c(F)cccc1F)Nc1ccccc1N1CCCC1 | 560
CC[C@@H](C(=O)Nc1ccc(N2CCCC2)cc1)c1ccccc1 | 360
O=C(Nc1ccccc1N1CCCC1)C(c1ccccc1)C1CC1 (configuration not stated) | 3500
O=C(Cc1cccc(F)c1)Nc1ccccc1N1CCCC1 | 490
CC[C@H](C(=O)Nc1ccccc1N1CCCC1)c1ccccc1 | 80
CC(C)CC(C(=O)Nc1ccccc1N1CCCC1)c1ccccc1 (configuration not stated) | 2220
CCC(C(=O)Nc1ccccc1N1CCCC1)c1ccc(F)cc1 (configuration not stated) | 130
O=C(Nc1ccccc1N1CCCC1)[C@@H]1CCCc2ccccc21 | 29900
CCC(C(=O)Nc1ccccc1N1CCCC1)c1ccc(OC)cc1 (configuration not stated) | 380

Structure (SMILES) | IC50 [nM]
CC(C(=O)Nc1ccccc1N1CCCC1)c1ccccc1 (configuration not stated) | 260
CCC(C(=O)Nc1ccccc1N1CCOCC1)c1ccccc1 (configuration not stated) | 12700
CCC(C(=O)Nc1ccccc1N1CCCC1)c1ccccc1Cl (configuration not stated) | 3310
O=C(Nc1ccccc1N1CCCC1)C(F)c1ccccc1 (configuration not stated) | 990
CCC(C(=O)Nc1ccccc1Cl)c1ccccc1 (configuration not stated) | 15000
CCC(C(=O)Nc1ccccc1N1CCCC1)c1cccc(F)c1 (configuration not stated) | 360
CCC(C(=O)Nc1ccccc1N(C)C)c1ccccc1 (configuration not stated) | 17400
O=C(Cc1ccccc1Cl)Nc1ccccc1N1CCCC1 | 950
CCC(C(=O)Nc1ccccc1-n1cccc1)c1ccccc1 (configuration not stated) | 5270
O=C(Cc1ccccc1)Nc1ccccc1N1CCCC1 | 740
O=C(Cc1ccc(F)cc1)Nc1ccccc1N1CCCC1 | 700
CCC(C(=O)Nc1ccccc1N1CCCC1)c1ccc(Cl)cc1 (configuration not stated) | 280
CCC(C(=O)Nc1ccccc1N1CCCC1)c1ccc(Cl)c(Cl)c1 (configuration not stated) | 470
CCC(C(=O)Nc1ccccc1N1CCCC1)c1ccccc1F (configuration not stated) | 440
O=C(Nc1ccccc1N1CCCC1)[C@H]1CCc2ccccc21 | 14100
CCC(C(=O)Nc1ccccc1N1CCCC1)c1cccc(C)c1 (configuration not stated) | 330
COc1cccc(CC(=O)Nc2ccccc2N2CCCC2)c1 | 2350
O=C(Cc1ccc(F)c(F)c1)Nc1ccccc1N1CCCC1 | 1730
CCC(C(=O)Nc1ccccc1N1CCCC1)c1ccc(OC)c(OC)c1 (configuration not stated) | 20200
CCC(C(=O)Nc1ccccc1N1CCCC1)c1cccc(Cl)c1 (configuration not stated) | 240
O=C(Nc1ccccc1N1CCCC1)C1CCc2ccccc21 (configuration not stated) | 330
COc1ccc(CC(=O)Nc2ccccc2N2CCCC2)cc1 | 1750
O=C(Nc1ccccc1N1CCCC1)[C@H]1CCCc2ccccc21 | 24600
CCC(C(=O)Nc1ccccc1N1CCCC1)c1cccc(C(F)(F)F)c1 (configuration not stated) | 390

same assay, conditions: KCNQ2-CHO automated patch clamp current; at 30 µM (top of the series)

Structure (SMILES) | current change, negative = inhibition
O=C(Cc1ccccc1F)Nc1ccccc1N1CCCC1 | inactive
CC(C)C(C(=O)Nc1ccccc1N1CCCC1)c1ccccc1 (configuration not stated) | inactive
CCC(C(=O)Nc1ccccc1N(C)CC)c1ccccc1 (configuration not stated) | inactive
CCC(C(=O)Nc1ccccc1-n1ccnc1)c1ccccc1 (configuration not stated) | inactive
CCC(C(=O)Nc1ccccc1N1C(=O)CCC1=O)c1ccccc1 (configuration not stated) | inactive
CCC(C(=O)Nc1ccccc1OC)c1ccccc1 (configuration not stated) | inactive
CCC(C(=O)Nc1cccc(N2CCCC2)c1)c1ccccc1 (configuration not stated) | inactive
CCC(C(=O)Nc1ccccc1N(C)Cc1ccccc1)c1ccccc1 (configuration not stated) | inactive
CCC(C(=O)Nc1ccccc1-n1c(C)ccc1C)c1ccccc1 (configuration not stated) | inactive
O=C(Nc1ccccc1N1CCCC1)C1(c2ccccc2)CC1 | inactive
O=C(Nc1ccccc1N1CCCC1)C1CCOc2ccccc21 (configuration not stated) | inactive
CCC(C(=O)Nc1ccccc1N1CCCCCCC1)c1ccccc1 (configuration not stated) | inactive
CCC(C(=O)Nc1ccccc1N1CCCCC1)c1ccccc1 (configuration not stated) | inactive
CC(C)(C(=O)Nc1ccccc1N1CCCC1)c1ccccc1 | inactive
